ChEMBL document CHEMBL1201862, “PubChem BioAssay data set” (2004)
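How tested: cells in 96-well plates exposed to compound for 48 hours at five concentrations. GI50 is the concentration that inhibits growth by half.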 Active and inactive are the calls of the source. Cut-off read from the data, not from the text of the source: active = GI50 up to about 1.1 µM and inactive = higher.

How the values were obtained:
Assay in all cases: NCI-60 cell line screen, 48 h
[1] = tested on: 786-0
[2] = tested on: A498
[3] = tested on: A549
[4] = tested on: ACHN
[5] = tested on: CAKI-1
[6] = tested on: CCRF-CEM
[7] = tested on: COLO 205
[8] = tested on: DLD-1
[9] = tested on: DMS-114
[10] = tested on: EKVX
[11] = tested on: HCT-116
[12] = tested on: HL-60
[13] = tested on: HOP-18
[14] = tested on: HOP-62
[15] = tested on: HOP-92
[16] = tested on: HT-29
[17] = tested on: IGROV-1
[18] = tested on: K562
[19] = tested on: KM-20L2
[20] = tested on: KM12
[21] = tested on: LOX IMVI
[22] = tested on: LXFL 529
[23] = tested on: M14
[24] = tested on: M19-MEL
[25] = tested on: MOLT-4
[26] = tested on: Malme-3M
[27] = tested on: NCI-H226
[28] = tested on: NCI-H23
[29] = tested on: NCI-H460
[30] = tested on: NCI-H522
[31] = tested on: OVCAR-3
[32] = tested on: OVCAR-4
[33] = tested on: OVCAR-8
[34] = tested on: RPMI-8226
[35] = tested on: RXF 393
[36] = tested on: RXF 631
[37] = tested on: SF-268
[38] = tested on: SF-295
[39] = tested on: SF-539
[40] = tested on: SK-MEL-28
[41] = tested on: SK-MEL-5
[42] = tested on: SK-OV-3
[43] = tested on: SN12C
[44] = tested on: SNB-19
[45] = tested on: SNB-75
[46] = tested on: SNB-78
[47] = tested on: SR
[48] = tested on: SW-620
[49] = tested on: TK-10
[50] = tested on: U-251
[51] = tested on: UACC-257
[52] = tested on: UACC-62
[53] = tested on: UO-31
[54] = tested on: XF498
[55] = tested on: DMS-273
[56] = tested on: HCC 2998
[57] = tested on: HCT-15
[58] = tested on: OVCAR-5
[59] = tested on: SK-MEL-2

NS(=O)(=O)c1ccc(NC(=O)c2cccn3c(=O)c4ccccc4nc23)cc1
GI50 [1]: > 100 µM (inactive) | GI50 [2]: > 100 µM (inactive) | GI50 [3]: > 100 µM (inactive) | GI50 [4]: > 100 µM (inactive) | GI50 [5]: > 100 µM (inactive) | GI50 [6]: > 100 µM (inactive) | GI50 [7]: > 100 µM (inactive) | GI50 [8]: > 100 µM (inactive) | GI50 [9]: > 100 µM (inactive) | GI50 [10]: > 100 µM (inactive) | GI50 [11]: > 100 µM (inactive) | GI50 [12]: > 100 µM (inactive) | GI50 [13]: > 100 µM (inactive) | GI50 [14]: > 100 µM (inactive) | GI50 [15]: > 100 µM (inactive) | GI50 [16]: > 100 µM (inactive) | GI50 [17]: > 100 µM (inactive) | GI50 [18]: > 100 µM (inactive) | GI50 [19]: > 100 µM (inactive) | GI50 [20]: 41.2 µM (inactive) | GI50 [21]: 86.3 µM (inactive) | GI50 [22]: > 100 µM (inactive) | GI50 [23]: > 100 µM (inactive) | GI50 [24]: > 100 µM (inactive) | GI50 [25]: 80.2 µM (inactive) | GI50 [26]: > 100 µM (inactive) | GI50 [27]: > 100 µM (inactive) | GI50 [28]: > 100 µM (inactive) | GI50 [29]: > 100 µM (inactive) | GI50 [30]: > 100 µM (inactive) | GI50 [31]: > 100 µM (inactive) | GI50 [32]: > 100 µM (inactive) | GI50 [33]: > 100 µM (inactive) | GI50 [34]: > 100 µM (inactive) | GI50 [35]: > 100 µM (inactive) | GI50 [36]: > 100 µM (inactive) | GI50 [37]: > 100 µM (inactive) | GI50 [38]: > 100 µM (inactive) | GI50 [39]: > 100 µM (inactive) | GI50 [40]: > 100 µM (inactive) | GI50 [41]: > 100 µM (inactive) | GI50 [42]: > 100 µM (inactive) | GI50 [43]: > 100 µM (inactive) | GI50 [44]: > 100 µM (inactive) | GI50 [45]: > 100 µM (inactive) | GI50 [46]: > 100 µM (inactive) | GI50 [47]: 79.8 µM (inactive) | GI50 [48]: > 100 µM (inactive) | GI50 [49]: > 100 µM (inactive) | GI50 [50]: > 100 µM (inactive) | GI50 [51]: > 100 µM (inactive) | GI50 [52]: > 100 µM (inactive) | GI50 [53]: 85.5 µM (inactive) | GI50 [54]: > 100 µM (inactive)

O=C1c2c(c3c4ccccc4[nH]c3c3[nH]c4ccccc4c23)C(=O)N1Cc1ccccc1
GI50 [1]: 3.13 µM (inactive) | GI50 [3]: 3.48 µM (inactive) | GI50 [4]: 2.87 µM (inactive) | GI50 [5]: 3.65 µM (inactive) | GI50 [6]: 2.96 µM (inactive) | GI50 [7]: 2.2 µM (inactive) | GI50 [8]: 3.64 µM (inactive) | GI50 [9]: 2.82 µM (inactive) | GI50 [55]: 2.74 µM (inactive) | GI50 [10]: 5.93 µM (inactive) | GI50 [56]: 4.27 µM (inactive) | GI50 [11]: 2.74 µM (inactive) | GI50 [57]: 2.06 µM | GI50 [14]: 3.95 µM (inactive) | GI50 [15]: 2.43 µM (inactive) | GI50 [16]: 4.04 µM (inactive) | GI50 [17]: 4.09 µM (inactive) | GI50 [18]: 3.05 µM (inactive) | GI50 [19]: 2.94 µM (inactive) | GI50 [20]: 3.08 µM (inactive) | GI50 [21]: 2.44 µM (inactive) | GI50 [22]: 3.44 µM (inactive) | GI50 [23]: 3.31 µM (inactive) | GI50 [24]: 3.64 µM (inactive) | GI50 [25]: 2.14 µM (inactive) | GI50 [26]: 3.54 µM (inactive) | GI50 [27]: 2.1 µM (inactive) | GI50 [28]: 2.08 µM (inactive) | GI50 [29]: 3.3 µM (inactive) | GI50 [30]: 1.77 µM (inactive) | GI50 [31]: 2.81 µM (inactive) | GI50 [32]: 3.06 µM (inactive) | GI50 [58]: 2.62 µM (inactive) | GI50 [33]: 4.47 µM (inactive) | GI50 [34]: 2.36 µM (inactive) | GI50 [35]: 1.51 µM (inactive) | GI50 [36]: 2.32 µM (inactive) | GI50 [37]: 3.01 µM (inactive) | GI50 [38]: 3.9 µM (inactive) | GI50 [39]: 2.37 µM (inactive) | GI50 [40]: 2.89 µM (inactive) | GI50 [59]: 3.2 µM (inactive) | GI50 [41]: 1.85 µM (inactive) | GI50 [42]: 2.96 µM (inactive) | GI50 [43]: 2.1 µM (inactive) | GI50 [44]: 2.8 µM (inactive) | GI50 [45]: 3.09 µM (inactive) | GI50 [46]: 3.06 µM (inactive) | GI50 [48]: 3.7 µM (inactive) | GI50 [49]: 4.25 µM (inactive) | GI50 [50]: 2.33 µM (inactive) | GI50 [51]: 3.75 µM (inactive) | GI50 [52]: 4.25 µM (inactive) | GI50 [53]: 2.53 µM (inactive) | GI50 [54]: 2 µM (inactive)
